In patent publication US20090082329A1 (AVENTIS PHARMA S.A., priority 2006, published 2009):
Where two headings read alike, the source gives them in different places.

Experiments:
[1] = target: T1, human cytoplasmic domain of IGF-1R (Homo sapiens, UniProt P08069); assay: Kinase IGF-1R test: inhibition of autophosphorylation of the enzyme (HTRF); format: biochemical; settings: ATP 120 μM
T1 construct: The human cytoplasmic domain of IGF-1R was cloned by fusion with glutathione S-transferase (GST); made in house; host or cells: SF21 insect cells (baculovirus, pFastBac-GST)
T1 sequence (P08069 960-1367 limits assumed): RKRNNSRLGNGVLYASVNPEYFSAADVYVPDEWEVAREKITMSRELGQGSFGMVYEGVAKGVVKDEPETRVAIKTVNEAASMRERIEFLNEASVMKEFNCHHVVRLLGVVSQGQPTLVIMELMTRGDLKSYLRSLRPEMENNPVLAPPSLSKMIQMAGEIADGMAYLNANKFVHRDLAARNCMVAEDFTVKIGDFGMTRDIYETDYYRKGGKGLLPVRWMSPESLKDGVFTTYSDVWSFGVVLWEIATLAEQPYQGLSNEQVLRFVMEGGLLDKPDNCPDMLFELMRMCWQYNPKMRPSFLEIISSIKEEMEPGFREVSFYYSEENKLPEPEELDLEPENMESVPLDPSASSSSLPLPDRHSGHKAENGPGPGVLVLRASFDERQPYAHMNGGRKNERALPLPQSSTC
Experimental: A) Experimental Protocol for the Kinase IGF-1R Test:
The inhibitory activity of the compounds on IGF1R is determined by measuring the inhibition of autophosphorylation of the enzyme using a time-resolved fluorescence test (HTRF). The human cytoplasmic domain of IGF-1R was cloned by fusion with glutathione S-transferase (GST) in the baculovirus expression vector pFastBac-GST. The protein is expressed in the SF21 cells and purified to about 80% homogeneity. For the enzymatic test, the test compound at 10 mM dissolved in DMSO is diluted in ⅓ steps in a 50 mM Hepes, pH 7.5, 5 mM MnCl2, 50 mM NaCl, 3% Glycerol, 0.025% Tween 20 buffer. To measure the inhibition, the successive dilutions of the compound are preincubated for 30 minutes and 90 minutes in the presence of 5 nM of enzyme, the final DMSO concentration not exceeding 1%. The enzymatic reaction is initiated to have a final ATP concentration of 120 μM, and is stopped after 5 minutes by addition of 100 mM Hepes, pH 7.0 buffer containing 0.4 M of potassium fluoride, 133 mM EDTA, 0.1% BSA, the XL665-labelled antibody anti-GST and the anti-phosphotyrosine antibody conjugated to europium cryptate Eu—K (Cis-Bio Int.). The characteristics of the two fluorophores, XL-665 and Eu—K, are available in G. Mathis et al., Anticancer Research, 1997, 17, pages 3011-3014. The energy transfer between the excited europium cryptate to the acceptor XL665 is proportional to the degree of autophosphorylation of IGF-1R. The specific long-lasting signal of XL-665 is measured in a GENios Pro TECAN plate counter. The inhibition of autophosphorylation of IGF-1R at time 30 minutes and 90 minutes with the test compounds of the invention is calculated relative to a 1% in DMSO control, whose activity is measured in the absence of compound. The curve representing the percentage of inhibition as a function of the log of the concentration is established to determine the concentration corresponding to 50% inhibition (IC50),

MEF-IGF1R cells = assay: Proliferation/viability of MEF-IGF1R (Thymidine [14C] incorporation); format: cell-based; settings: rhIGF1 100 ng/mL, incubation 72 hours, read-out: Test C IC50
Experimental: C) Measurement of the Proliferation/Viability of MEF-IGF1R
Cell culture: the MEF-IGF1R cells (stable clone of cells transfected with the receptor hIGF-1R) are cultured at 37° C. under 5% CO2 in EMEM medium containing 10% FCS.
Test procedure: the cells are seeded at 5000 cells per well in 96-well Cytostar plates (Amersham) with 0.2 mL of EMEM culture medium at 37° C. for 18 hours. The cells are then washed twice with EMEM medium and left to culture without serum for 24 hours. The compounds are then added at various concentrations in the presence of rhIGF1 (100 ng/mL) and 0.1 μCi of Thymidine [^14C] (specific activity ˜50 mCi/mmol) to give 0.2 mL of volume per well. After incubation for 72 hours in the presence of the compound, at 37° C. under 5% CO2, the incorporation of Thymidine [^14C] is measured by counting the radioactivity on a Microbeta trilux counter (Perkin-Elmer). The IC50 is determined from 10 increasing concentrations of the compound.
(§1) (i) The tests are performed in duplicate and the mean of the two tests is calculated.
(§2) (ii) The value of the signal of the maximum response is calculated from the positive control: cells stimulated with IGF1 without compound.
(§3) (iii) Value of the signal of the minimum response is calculated from the negative control: cells not stimulated with IGF1 without compound.
(§4) (iv) By using these values as maximum (100%) and minimum (0%), respectively, the data were normalized so as to give a percentage of the maximum response.
(§5) (v) A curve of dose response is plotted and the IC50 (the concentration of which the compound induces a 50% decrease in the signal) of the compound is calculated by non-linear regression analysis.

IGF-1R in MCF7 cells = IGF-1R in MCF7 cells (Homo sapiens, UniProt P08069); assay: Autophosphorylation of IGF-1R in MCF7 cells after stimulation with IGF-1 (ELISA); format: cell-based; set-up: endogenous in cells; host or cells: MCF-7 cells; settings: MCF-7 cells, compound added one hour before stimulation with IGF1; read-out: Test B IC50
IGF-1R in MCF7 cells, sequence (P08069 31-1367): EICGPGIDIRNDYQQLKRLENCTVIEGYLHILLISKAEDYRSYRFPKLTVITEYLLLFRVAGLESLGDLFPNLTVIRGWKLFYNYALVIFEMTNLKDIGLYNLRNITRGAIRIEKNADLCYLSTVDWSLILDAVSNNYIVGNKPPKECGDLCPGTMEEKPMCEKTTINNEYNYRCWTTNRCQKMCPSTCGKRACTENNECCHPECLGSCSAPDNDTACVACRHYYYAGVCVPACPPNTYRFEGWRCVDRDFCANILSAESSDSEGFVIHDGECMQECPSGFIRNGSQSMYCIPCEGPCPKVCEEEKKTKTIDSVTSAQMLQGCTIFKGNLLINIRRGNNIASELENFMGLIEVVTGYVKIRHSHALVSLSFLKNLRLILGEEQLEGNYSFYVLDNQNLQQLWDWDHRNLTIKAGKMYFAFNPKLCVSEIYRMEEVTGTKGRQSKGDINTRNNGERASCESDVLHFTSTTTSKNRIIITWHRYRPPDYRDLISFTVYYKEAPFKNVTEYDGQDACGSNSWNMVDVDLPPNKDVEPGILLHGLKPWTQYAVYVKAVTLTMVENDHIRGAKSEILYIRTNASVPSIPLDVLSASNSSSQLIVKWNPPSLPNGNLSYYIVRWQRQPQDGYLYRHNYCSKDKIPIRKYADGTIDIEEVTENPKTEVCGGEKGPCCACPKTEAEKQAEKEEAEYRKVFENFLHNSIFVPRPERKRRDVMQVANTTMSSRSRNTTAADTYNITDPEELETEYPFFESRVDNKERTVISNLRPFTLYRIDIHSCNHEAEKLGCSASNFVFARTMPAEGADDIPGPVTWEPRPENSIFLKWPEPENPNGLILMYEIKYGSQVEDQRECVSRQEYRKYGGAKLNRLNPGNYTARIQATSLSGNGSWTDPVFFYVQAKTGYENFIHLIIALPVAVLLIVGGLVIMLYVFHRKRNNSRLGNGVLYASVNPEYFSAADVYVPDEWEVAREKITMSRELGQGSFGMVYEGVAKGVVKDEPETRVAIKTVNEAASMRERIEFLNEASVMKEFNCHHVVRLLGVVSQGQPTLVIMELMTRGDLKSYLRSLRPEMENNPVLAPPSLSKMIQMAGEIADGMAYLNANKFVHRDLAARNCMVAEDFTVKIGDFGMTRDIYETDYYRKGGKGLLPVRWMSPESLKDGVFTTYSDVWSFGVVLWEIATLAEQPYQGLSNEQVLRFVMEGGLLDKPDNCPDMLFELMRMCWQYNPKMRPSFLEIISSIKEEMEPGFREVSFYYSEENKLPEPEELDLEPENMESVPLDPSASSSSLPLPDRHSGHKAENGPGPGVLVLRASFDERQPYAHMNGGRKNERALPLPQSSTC
Experimental: B) Measurement of the Autophosphorylation of IGF-1R in MCF7 Cells after Stimulation with IGF-1
Cell Culturing and Execution of the Test:
The autophosphorylation of IGF1R in the IGF1-induced cells is evaluated by means of an ELISA technique (Enzyme Linked ImmunoSorbent Assay). The MCF-7 are seeded at 60 000 cells per well in 6-well plates and incubated at 37° C., 5% CO2 in medium containing 10% serum. After one night in 10% serum, the cells are deprived of serum for 24 hours. The compounds are added to the medium one hour before stimulation with IGF1. After 10 minutes of stimulation with IGF1, the cells are lysed with a buffer (Hepes 50 mM pH 7.6, Triton X100 1%, orthovanadate 2 mM, protease inhibitor cocktail). The cell lysates are incubated on a 96-well plate precoated with an anti-IGF1R antibody, followed by incubation with an anti-phosphotyrosine antibody coupled to the enzyme peroxidase. The level of peroxidase activity (measured by OD with a luminescent substrate) reflects the phosphorylation status of the receptor.
as §1, §2, §3, §4, §5

[2] = preincubation 30 minutes with 5 nM enzyme, read-out: Test A 30′ IC50
[3] = preincubation 90 minutes with 5 nM enzyme, read-out: Test A 90′ IC50

| Structure (SMILES) | IC50 [1, 2] [nM] | IC50 [1, 3] [nM] | IC50 (IGF-1R in MCF7 cells) [nM] | IC50 (MEF-IGF1R cells) [nM] |
| --- | --- | --- | --- | --- |
| CC1(C)C(=O)N(c2ccc(SC(F)(F)F)cc2)C(=O)N1Cc1ccnc(NC(=O)N2CCOCC2)c1 [Example 29, N-{4-[(5,5-dimethyl-2,4-dioxo-3-{4-[(trifluoro-methyl)thio]phenyl}imidazolidin-1-yl)methyl]pyridin-2-yl}morpholine-4-carboxamide] | 10 to 100 | 10 to 100 | 10 to 100 | 10 to 100 |
| CN1CCN(C(=O)Nc2cc(CN3C(=O)N(c4ccc(SC(F)(F)F)cc4)C(=O)C3(C)C)ccn2)CC1 [Example 30, N-{4-[(5,5-dimethyl-2,4-dioxo-3-{4-[(trifluoro-methyl)thio]phenyl}imidazolidin-1-yl)methyl]pyridin-2-yl}-4-methylpiperazine-1-carboxamide] | 10 to 100 | < 10 | 10 to 100 | > 100 |
| CN(C)CCCNC(=O)Nc1cc(CN2C(=O)N(c3ccc(SC(F)(F)F)cc3)C(=O)C2(C)C)ccn1 [Example 39, 1-[3-(dimethylamino)propyl]-3-{4-[(5,5-dimethyl-2,4-dioxo-3-{4-[(trifluoromethyl)thio]phenyl}imidazolidin-1-yl)methyl]pyridin-2-yl}urea] | 10 to 100 | 10 to 100 | > 100 | > 100 |
| CC1(C)C(=O)N(c2ccc(SC(F)(F)F)cc2)C(=O)N1Cc1ccnc(Nc2cccc(F)c2)c1 [Example 40C, 1-({2-[(3-fluorophenyl)amino]pyridin-4-yl}methyl)-5,5-dimethyl-3-{4-[(trifluoromethyl)thio]phenyl}imidazolidine-2,4-dione] | > 100 | 10 to 100 | 10 to 100 | 10 to 100 |

More lines, main results first:

| IC50 [1, 2] [nM] | IC50 [1, 3] [nM] | IC50 (IGF-1R in MCF7 cells) [nM] | Structure (SMILES) | IC50 (MEF-IGF1R cells) [nM] |
| --- | --- | --- | --- | --- |
| 10 to 100 | 10 to 100 | 10 to 100 | CC1(C)C(=O)N(c2ccc(SC(F)(F)F)cc2)C(=O)N1Cc1ccnc(NC(=O)N2CCC2)c1 [Example 27, N-{4-[(5,5-dimethyl-2,4-dioxo-3-{4-[(trifluoro-methyl)thio]phenyl}imidazolidin-1-yl)methyl]pyridin-2-yl}azetidine-1-carboxamide] | < 10 |
| 10 to 100 | 10 to 100 | < 10 | CC1(C)C(=O)N(c2ccc(SC(F)(F)F)cc2)C(=O)N1Cc1ccnc(NC(=O)N2CCCC2)c1 [Example 28, N-{4-[(5,5-dimethyl-2,4-dioxo-3-{4-[(trifluoromethyl)thio]phenyl}imidazolidin-1-yl)methyl]pyridin-2-yl}pyrrolidine-1-carboxamide] | 10 to 100 |
| 10 to 100 | 10 to 100 | 10 to 100 | CCN(C)C(=O)Nc1cc(CN2C(=O)N(c3ccc(SC(F)(F)F)cc3)C(=O)C2(C)C)ccn1 [Example 34, 3-{4-[(5,5-dimethyl-2,4-dioxo-3-{4-[(trifluoro-methyl)thio]phenyl}imidazolidin-1-yl)methyl]pyridin-2-yl}-1-ethyl-1-methylurea] | 10 to 100 |
| 10 to 100 | 10 to 100 | 10 to 100 | CCCN(C)C(=O)Nc1cc(CN2C(=O)N(c3ccc(SC(F)(F)F)cc3)C(=O)C2(C)C)ccn1 [Example 35, 3-{4-[(5,5-dimethyl-2,4-dioxo-3-{4-[(trifluoromethyl)thio]phenyl}imidazolidin-1-yl)methyl]pyridin-2-yl}-1-methyl-1-propylurea] | 10 to 100 |
| 10 to 100 | 10 to 100 | 10 to 100 | CCCCN(C)C(=O)Nc1cc(CN2C(=O)N(c3ccc(SC(F)(F)F)cc3)C(=O)C2(C)C)ccn1 [Example 36, 1-butyl-3-{4-[(5,5-dimethyl-2,4-dioxo-3-{4-[(trifluoromethyl)thio]phenyl}imidazolidin-1-yl)methyl]pyridin-2-yl}-1-methylurea] | 10 to 100 |
| 10 to 100 | 10 to 100 | 10 to 100 | CC1(C)C(=O)N(c2ccc(SC(F)(F)F)cc2)C(=O)N1Cc1ccnc(NC2CC2)c1 [Example 40D, 1-{[2-(cyclopropylamino)pyridin-4-yl]methyl}-5,5-dimethyl-3-{4-[(trifluoromethyl)thio]phenyl}imidazolidine-2,4-dione] | > 100 |
